Test results: patent US5556744A, “Methods and compositions for diagnosing and treating certain HIV infected patients” (The Trustees of the University of Pennsylvania, priority 1994, dated 1996)

Assays:
[1] = tested on: maternal serum samples (antibodies); assay: ELISA peptide-binding of maternal sera, expanded peptide collection (Example 5); design: species or system human
Procedure, shortened: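 Maternal sera diluted 1:50 or 1:500 in 1% BSA/PBS/0.05% Tween 20 were tested by ELISA on 10 μg/mL HIV IIIB gp120/gp41 peptides (~18 residues, ≥85% pure). Binding scored positive at experimental/control OD450nm ratio ≥2; HIV-seronegative human sera served as controls.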

[2] = tested on: maternal sera (antibodies); assay: ELISA peptide-binding of maternal sera (Example 6); design: species or system human
Procedure, shortened: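 Third-trimester maternal sera, from HIV-1 transmitting and non-transmitting mothers, were tested by ELISA against ~16-residue peptides spanning HIV-1 external and transmembrane glycoproteins. Each serum was run with at least 40 peptides, and values are the percentage of sera binding each peptide.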

[3] = tested on: HIV-1; settings: cited from earlier work

| Sequence | Number of non-transmission sera that reacted with the peptide ([1]; of 13 non-transmission sera) | Number of Non-Transmitters which bound to peptide ([2]; Non-Transmitters, N = 12) | Percent of Non-Transmitters which bound to peptide ([2]; Non-Transmitters, N = 12) [%] | Number of Transmitters which bound to peptide ([2]; Transmitters, N = 4) | Percent of Transmitters which bound to peptide ([2]; Transmitters, N = 4) [%] | Neutralizing activity of antisera generated to the peptide ([3]; antisera (animals)) | Antisyncytial and neutralizing activities elicited by the peptide ([3]; in words, Example 5) | Binding / reactivity of maternal sera to peptide (in words) ([1]; Example 5) |
| --- | --- | --- | --- | --- | --- | --- | --- | --- |
| CFRPGGGDMRDNWREL [Peptide 466] | 3 | 0 | 0 | 0 | 0 | exhibit neutralizing activity | can elicit both antisyncytial and neutralizing activities |  |
| TLPCASDAKAYDTEV [Peptide 93] |  |  |  |  |  |  |  | Differences in binding between the transmission and non-transmission groups are noted |
